According to patent publication US12509447B2, “Small molecule compound” (Technoderma Medicines Pte Ltd, priority 2019, dated 2025):

Assays:
Assay type in all cases: biochemical
[1] = molecular target: Tyk2 (Homo sapiens, UniProt P29597); experiment: Inhibition of JAK kinase activity, EZ Reader microfluidic phosphorylation of peptide substrate: Tyk2; conditions: Tyk2 kinase 1 nM; highest final concentration 10 μM, 1:3 serial dilution, 8 points, duplicates
Outline: (§1)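 Microfluidic mobility-shift assay reading fluorescent peptide substrate and product; kinases at 20 nM (JAK1) or 1 nM (JAK2, JAK3, Tyk2) in pH 7.4 HEPES with 10 mM MgCl2, run at room temperature to 20-30% conversion, then stopped with EDTA. Compounds tested from 10 μM top, 1:3 over 8 points in duplicate; IC50 fitted from % conversion.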

[2] = molecular target: T1, JAK3 (Homo sapiens, UniProt P52333); experiment: Inhibition of JAK kinase activity, EZ Reader microfluidic phosphorylation of peptide substrate: JAK3; conditions: JAK3 kinase 1 nM; highest final concentration 10 μM, 1:3 serial dilution, 8 points, duplicates
T1 sequence (P52333 1-1124): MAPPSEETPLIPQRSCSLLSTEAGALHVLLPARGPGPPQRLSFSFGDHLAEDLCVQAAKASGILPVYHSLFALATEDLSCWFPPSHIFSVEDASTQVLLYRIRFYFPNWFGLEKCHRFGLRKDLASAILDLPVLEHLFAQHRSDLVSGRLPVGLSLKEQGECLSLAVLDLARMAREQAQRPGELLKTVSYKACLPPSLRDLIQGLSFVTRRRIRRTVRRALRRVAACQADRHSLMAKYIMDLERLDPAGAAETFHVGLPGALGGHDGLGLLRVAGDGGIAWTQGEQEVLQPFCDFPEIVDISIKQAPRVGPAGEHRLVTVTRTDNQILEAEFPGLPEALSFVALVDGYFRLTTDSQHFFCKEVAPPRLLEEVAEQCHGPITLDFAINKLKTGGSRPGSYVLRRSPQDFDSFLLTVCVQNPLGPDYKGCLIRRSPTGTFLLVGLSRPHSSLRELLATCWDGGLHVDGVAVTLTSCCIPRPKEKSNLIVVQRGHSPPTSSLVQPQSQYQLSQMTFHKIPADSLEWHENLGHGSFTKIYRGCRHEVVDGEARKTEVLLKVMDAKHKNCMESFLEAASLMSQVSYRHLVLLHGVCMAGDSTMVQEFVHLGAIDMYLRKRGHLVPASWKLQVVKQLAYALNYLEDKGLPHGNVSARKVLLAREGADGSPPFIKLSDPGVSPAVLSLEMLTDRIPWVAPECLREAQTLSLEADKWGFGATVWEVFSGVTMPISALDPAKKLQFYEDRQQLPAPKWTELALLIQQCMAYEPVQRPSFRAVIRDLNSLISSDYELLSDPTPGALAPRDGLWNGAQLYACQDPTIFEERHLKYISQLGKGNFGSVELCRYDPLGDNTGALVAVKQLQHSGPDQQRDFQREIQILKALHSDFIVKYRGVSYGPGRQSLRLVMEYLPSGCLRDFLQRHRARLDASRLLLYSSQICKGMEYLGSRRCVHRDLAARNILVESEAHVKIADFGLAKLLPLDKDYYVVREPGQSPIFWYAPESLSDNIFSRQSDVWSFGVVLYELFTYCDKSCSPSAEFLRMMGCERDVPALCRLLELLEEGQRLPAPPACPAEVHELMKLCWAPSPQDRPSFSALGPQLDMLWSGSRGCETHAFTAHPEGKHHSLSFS
Outline: as §1

[3] = molecular target: JAK1 (Homo sapiens, UniProt P23458); experiment: Inhibition of JAK kinase activity, EZ Reader microfluidic phosphorylation of peptide substrate: JAK1; conditions: JAK1 kinase 20 nM; highest final concentration 10 μM, 1:3 serial dilution, 8 points, duplicates
Outline: as §1

[4] = molecular target: JAK2 (Homo sapiens, UniProt O60674); experiment: Inhibition of JAK kinase activity, EZ Reader microfluidic phosphorylation of peptide substrate: JAK2; conditions: JAK2 kinase 1 nM; highest final concentration 10 μM, 1:3 serial dilution, 8 points, duplicates
Outline: as §1

Sequence of JAK2 (O60674 whole entry): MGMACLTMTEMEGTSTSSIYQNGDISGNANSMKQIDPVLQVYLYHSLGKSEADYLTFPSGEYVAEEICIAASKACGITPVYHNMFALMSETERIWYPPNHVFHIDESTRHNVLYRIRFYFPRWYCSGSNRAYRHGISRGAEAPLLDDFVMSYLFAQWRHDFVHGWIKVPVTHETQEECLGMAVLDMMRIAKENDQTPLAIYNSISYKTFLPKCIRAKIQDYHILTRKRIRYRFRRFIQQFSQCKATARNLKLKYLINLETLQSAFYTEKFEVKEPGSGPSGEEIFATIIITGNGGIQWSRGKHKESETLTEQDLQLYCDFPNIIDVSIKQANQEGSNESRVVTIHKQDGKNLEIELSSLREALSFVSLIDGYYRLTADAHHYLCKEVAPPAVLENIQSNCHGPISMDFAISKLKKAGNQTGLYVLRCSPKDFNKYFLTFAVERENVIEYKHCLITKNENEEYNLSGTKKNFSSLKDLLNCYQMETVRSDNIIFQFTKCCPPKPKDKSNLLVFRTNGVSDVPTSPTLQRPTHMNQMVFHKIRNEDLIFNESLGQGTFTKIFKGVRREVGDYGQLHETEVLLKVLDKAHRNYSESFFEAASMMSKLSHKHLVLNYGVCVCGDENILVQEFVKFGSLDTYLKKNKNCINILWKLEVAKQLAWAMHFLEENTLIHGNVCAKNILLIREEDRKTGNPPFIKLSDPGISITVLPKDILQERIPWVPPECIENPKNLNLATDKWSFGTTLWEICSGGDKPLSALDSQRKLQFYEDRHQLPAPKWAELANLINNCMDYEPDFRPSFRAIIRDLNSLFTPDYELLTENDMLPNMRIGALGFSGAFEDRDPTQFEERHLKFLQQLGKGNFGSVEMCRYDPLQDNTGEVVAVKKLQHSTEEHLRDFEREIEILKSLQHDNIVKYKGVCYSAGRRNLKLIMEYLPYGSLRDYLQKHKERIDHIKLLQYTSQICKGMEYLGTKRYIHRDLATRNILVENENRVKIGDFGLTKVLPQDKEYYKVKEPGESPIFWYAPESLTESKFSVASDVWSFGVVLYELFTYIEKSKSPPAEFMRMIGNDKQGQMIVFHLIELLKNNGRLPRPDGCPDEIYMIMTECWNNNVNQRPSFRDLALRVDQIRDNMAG
Sequence of JAK1 (P23458 whole entry): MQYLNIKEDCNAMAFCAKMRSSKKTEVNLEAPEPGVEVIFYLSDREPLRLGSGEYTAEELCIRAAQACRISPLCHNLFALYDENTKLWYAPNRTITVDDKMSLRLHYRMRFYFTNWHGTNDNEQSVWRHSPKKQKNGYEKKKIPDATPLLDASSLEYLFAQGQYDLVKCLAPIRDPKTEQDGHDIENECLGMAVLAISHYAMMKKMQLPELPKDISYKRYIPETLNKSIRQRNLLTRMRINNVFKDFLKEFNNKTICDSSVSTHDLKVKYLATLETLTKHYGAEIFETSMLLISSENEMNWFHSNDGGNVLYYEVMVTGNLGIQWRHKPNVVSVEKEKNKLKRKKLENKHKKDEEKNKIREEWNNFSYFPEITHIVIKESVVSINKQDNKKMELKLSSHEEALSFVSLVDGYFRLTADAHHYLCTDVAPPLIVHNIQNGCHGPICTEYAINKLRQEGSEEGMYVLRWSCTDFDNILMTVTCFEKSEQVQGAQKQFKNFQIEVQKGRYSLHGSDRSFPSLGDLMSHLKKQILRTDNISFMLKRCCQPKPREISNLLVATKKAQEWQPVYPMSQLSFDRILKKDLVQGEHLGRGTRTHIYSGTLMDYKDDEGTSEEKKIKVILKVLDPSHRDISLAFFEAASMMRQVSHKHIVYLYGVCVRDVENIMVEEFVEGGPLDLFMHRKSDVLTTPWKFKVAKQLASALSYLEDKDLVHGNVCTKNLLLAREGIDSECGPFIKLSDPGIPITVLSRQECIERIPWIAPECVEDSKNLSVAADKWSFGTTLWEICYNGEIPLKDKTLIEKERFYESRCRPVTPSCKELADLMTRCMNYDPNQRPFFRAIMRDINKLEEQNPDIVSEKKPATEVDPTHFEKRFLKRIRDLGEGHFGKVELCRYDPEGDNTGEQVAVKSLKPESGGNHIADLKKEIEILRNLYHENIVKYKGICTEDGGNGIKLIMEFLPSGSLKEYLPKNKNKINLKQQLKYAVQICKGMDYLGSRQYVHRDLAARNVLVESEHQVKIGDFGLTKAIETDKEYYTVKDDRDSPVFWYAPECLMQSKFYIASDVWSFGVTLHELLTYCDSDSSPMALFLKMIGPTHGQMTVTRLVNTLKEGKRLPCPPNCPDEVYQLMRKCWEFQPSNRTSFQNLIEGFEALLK
Sequence of Tyk2 (P29597 whole entry): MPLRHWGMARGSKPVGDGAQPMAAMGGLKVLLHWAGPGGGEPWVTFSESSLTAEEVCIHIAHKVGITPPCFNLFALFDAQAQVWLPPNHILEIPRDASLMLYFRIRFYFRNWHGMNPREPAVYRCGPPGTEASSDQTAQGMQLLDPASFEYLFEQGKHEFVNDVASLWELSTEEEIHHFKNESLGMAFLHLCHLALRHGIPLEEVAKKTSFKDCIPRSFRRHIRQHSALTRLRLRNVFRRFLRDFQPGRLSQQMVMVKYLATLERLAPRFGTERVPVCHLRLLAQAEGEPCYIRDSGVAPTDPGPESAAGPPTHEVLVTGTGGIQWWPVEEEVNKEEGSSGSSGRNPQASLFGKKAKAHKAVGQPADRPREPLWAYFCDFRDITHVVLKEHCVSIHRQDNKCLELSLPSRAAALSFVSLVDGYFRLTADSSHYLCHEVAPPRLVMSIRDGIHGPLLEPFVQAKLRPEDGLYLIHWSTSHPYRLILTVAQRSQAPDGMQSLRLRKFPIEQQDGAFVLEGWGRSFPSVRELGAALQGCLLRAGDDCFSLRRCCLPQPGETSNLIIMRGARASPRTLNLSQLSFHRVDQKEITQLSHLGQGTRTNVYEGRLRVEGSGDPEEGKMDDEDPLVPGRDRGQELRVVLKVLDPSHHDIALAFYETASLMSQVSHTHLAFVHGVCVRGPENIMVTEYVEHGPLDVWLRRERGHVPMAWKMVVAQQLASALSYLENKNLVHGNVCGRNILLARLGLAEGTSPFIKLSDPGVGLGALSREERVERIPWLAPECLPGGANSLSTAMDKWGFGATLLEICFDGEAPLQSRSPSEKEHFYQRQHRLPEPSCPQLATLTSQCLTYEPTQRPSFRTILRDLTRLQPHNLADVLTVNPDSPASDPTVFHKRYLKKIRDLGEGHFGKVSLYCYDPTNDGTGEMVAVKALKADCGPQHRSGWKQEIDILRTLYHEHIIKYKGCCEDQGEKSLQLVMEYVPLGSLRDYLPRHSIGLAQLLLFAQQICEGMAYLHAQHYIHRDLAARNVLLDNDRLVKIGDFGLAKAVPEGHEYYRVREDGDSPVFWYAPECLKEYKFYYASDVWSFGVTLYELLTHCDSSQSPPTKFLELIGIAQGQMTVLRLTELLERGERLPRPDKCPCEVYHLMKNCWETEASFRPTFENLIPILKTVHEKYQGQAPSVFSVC

Cn1cc(Nc2nccc(-c3ccn(C4(CC#N)CN(S(=O)(=O)C5CC5)C4)c3)n2)cn1 [TDM-180770, 2-(1-(cyclopropylsulfonyl)-3-(3-(2-((1-methyl-1H-pyrazol-4-yl)amino)pyrimidin-4-yl)-1H-pyrrol-1-yl)azetidinpyridin-3-yl)acetonitrile]
IC50 [1]: < 0.1 µM | IC50 [2]: 1 to 10 µM | IC50 [3]: 0.1 to 1 µM | IC50 [4]: 0.1 to 1 µM

CCS(=O)(=O)N1CC(CC#N)(n2ccc(-c3ccnc(Nc4cnn(C)c4)n3)c2)C1 [TDM-180771, 2-(1-(ethylsulfonyl)-3-(3-(2-((1-methyl-1H-pyrazol-4-yl)amino)pyrimidin-4-yl)-1H-pyrrol-1-yl)azetidinpyridin-3-yl)acetonitrile]
IC50 [1]: < 0.1 µM | IC50 [2]: 1 to 10 µM | IC50 [3]: 0.1 to 1 µM | IC50 [4]: < 0.1 µM

Cn1cc(Nc2nccc(-c3ccn(C4(CC#N)CN(C(=O)C5CC5)C4)c3)n2)cn1 [TDM-180772, 2-(1-(cyclopropanecarbonyl)-3-(3-(2-((1-methyl-1H-pyrazol-4-yl)amino)pyrimidin-4-yl)-1H-pyrrol-1-yl)azetidinpyridin-3-yl)acetonitrile]
IC50 [1]: 0.1 to 1 µM | IC50 [2]: ≥ 10 µM | IC50 [3]: 0.1 to 1 µM | IC50 [4]: 0.1 to 1 µM

Cn1cc(Nc2nccc(-c3ccn(C4(CC#N)CN(C(=O)CC#N)C4)c3)n2)cn1 [TDM-180775, 3-(3-(cyanomethyl)-3-(3-(2-((1-methyl-1H-pyrazol-4-yl)amino)pyrimidin-4-yl)-1H-pyrrol-1-yl)azetidinpiperazin-1-yl)-3-oxypropionitrile]
IC50 [1]: 0.1 to 1 µM | IC50 [2]: ≥ 10 µM | IC50 [3]: 0.1 to 1 µM | IC50 [4]: 0.1 to 1 µM

Cn1cc(Nc2nccc(-c3ccn(C4(CC#N)CN(C(=O)C5CC5(F)F)C4)c3)n2)cn1 (stereo not drawn) [TDM-180776, 2-(1-(2,2-difluorocyclo-1-carbonyl)-3-(3-(2-((1-methyl-1H-pyrazol-4-yl)amino)pyrimidin-4-yl)-1H-pyrrol-1-yl)azetidin-3-yl)acetonitrile]
IC50 [1]: < 0.1 µM | IC50 [2]: 1 to 10 µM | IC50 [3]: < 0.1 µM | IC50 [4]: < 0.1 µM

Cn1cc(Nc2nccc(-c3ccn(C4(CC#N)CN(C(=O)CC(F)(F)F)C4)c3)n2)cn1 [TDM-180778]
IC50 [1]: < 0.1 µM | IC50 [2]: 1 to 10 µM | IC50 [3]: < 0.1 µM | IC50 [4]: 0.1 to 1 µM

CCCS(=O)(=O)N1CC(CC#N)(n2ccc(-c3ccnc(Nc4cnn(C)c4)n3)c2)C1 [TDM-180785, 2-(3-(3-(2-((1-methyl-1H-pyrazol-4-yl)amino)pyrimidin-4-yl)-1H-pyrrol-1-yl)-1-(propylsulfonyl)azetidinpyridin-3-yl)acetonitrile]
IC50 [1]: 0.1 to 1 µM | IC50 [2]: ≥ 10 µM | IC50 [3]: 0.1 to 1 µM | IC50 [4]: 0.1 to 1 µM

CCCS(=O)(=O)N1CC(CC#N)(n2cc(-c3ccnc(Nc4cnn(C)c4)n3)cn2)C1 [TDM-180794, 2-(3-(4-(2-((1-methyl-1H-pyrazol-4-yl)amino)pyrimidin-4-yl)-1H-pyrazol-1-yl)-1-(propylsulfonyl)azacyclobutanpyridin-3-yl)acetonitrile]
IC50 [1]: 0.1 to 1 µM | IC50 [2]: 1 to 10 µM | IC50 [3]: 0.1 to 1 µM | IC50 [4]: 0.1 to 1 µM

Cn1cc(Nc2nccc(-c3cnn(C4(CC#N)CN(S(=O)(=O)Cc5ccccc5)C4)c3)n2)cn1 [TDM-180795, 2-(1-(benzylsulfonyl)-3-(4-(2-((1-methyl-1H-pyrazol-4-yl)amino)pyrimidin-4-yl)-1H-pyrazol-1-yl)azetidinpyridin-3-yl)acetonitrile]
IC50 [1]: 0.1 to 1 µM | IC50 [2]: ≥ 10 µM | IC50 [3]: 1 to 10 µM | IC50 [4]: 0.1 to 1 µM

CCOCCS(=O)(=O)N1CC(CC#N)(n2cc(-c3ccnc(Nc4cnn(C)c4)n3)cn2)C1 [TDM-180796, 2-(1-((2-ethoxyethyl)sulfonyl)-3-(4-(2-((1-methyl-1H-pyrazol-4-yl)amino)pyrimidin-4-yl)-1H-pyrazol-1-yl)azetidin-3-yl)acetonitrile]
IC50 [1]: 0.1 to 1 µM | IC50 [2]: ≥ 10 µM | IC50 [3]: 1 to 10 µM | IC50 [4]: 0.1 to 1 µM

Cn1cc(Nc2nccc(-c3cnn(C4(CC#N)CN(S(=O)(=O)C5CCOCC5)C4)c3)n2)cn1 [TDM-180797, 2-(3-(4-(2-((1-methyl-1H-pyrazol-4-yl)amino)pyrimidin-4-yl)-1H-pyrazol-1-yl)-1-((tetrahydro-2H-pyran-4-yl)sulfonyl)azetidin-3-yl)acetonitrile]
IC50 [1]: 0.1 to 1 µM | IC50 [2]: ≥ 10 µM | IC50 [3]: 0.1 to 1 µM | IC50 [4]: 0.1 to 1 µM

C=CCS(=O)(=O)N1CC(CC#N)(n2cc(-c3ccnc(Nc4cnn(C)c4)n3)cn2)C1 [TDM-180800, 2-(1-(allylsulfonyl)-3-(4-(2-((1-methyl-1H-pyrazol-4-yl)amino)pyrimidin-4-yl)-1H-pyrazol-1-yl)azetidin-3-yl)acetonitrile]
IC50 [1]: 0.1 to 1 µM | IC50 [2]: 1 to 10 µM | IC50 [3]: 0.1 to 1 µM | IC50 [4]: 0.1 to 1 µM

CCCCS(=O)(=O)N1CC(CC#N)(n2cc(-c3ccnc(Nc4cnn(C)c4)n3)cn2)C1 [TDM-180807, 2-(1-(butylsulfonyl)-3-(4-(2-((1-methyl-1H-pyrazol-4-yl)amino)pyrimidin-4-yl)-1H-pyrazol-1-yl)azetidin-3-yl)acetonitrile]
IC50 [1]: 0.1 to 1 µM | IC50 [2]: ≥ 10 µM | IC50 [3]: 1 to 10 µM | IC50 [4]: 0.1 to 1 µM

Cn1cc(Nc2nccc(-c3cnn(C4(CC#N)CN(S(=O)(=O)CCC(F)(F)F)C4)c3)n2)cn1 [TDM-180808, 2-(3-(4-(2-((1-methyl-1H-pyrazol-4-yl)amino)pyrimidin-4-yl)-1H-pyrazol-1-yl)-1-((3,3,3-trifluoropropyl)sulfonyl)azetidin-3-yl)acetonitrile]
IC50 [1]: 0.1 to 1 µM | IC50 [2]: 1 to 10 µM | IC50 [3]: 0.1 to 1 µM | IC50 [4]: 0.1 to 1 µM

CC(=O)N1CCN(c2ccc(-c3ccnc(Nc4cnn(C)c4)n3)cc2)CC1 [TDM-180827, 1-(4-(4-(2-((1-methyl-1H-pyrazol-4-yl)amino)pyrimidin-4-yl)phenyl)piperazin-1-yl)ethan-1-one]
IC50 [1]: 1 to 10 µM | IC50 [2]: ≥ 10 µM | IC50 [3]: 1 to 10 µM | IC50 [4]: 0.1 to 1 µM

CN1CCN(c2ccc(-c3ccnc(Nc4cnn(C)c4)n3)cc2)CC1 [TDM-180828, N-(1-methyl-1H-pyrazol-4-yl)-4-(4-(4-methylpiperazin-1-yl)phenyl)pyrimidin-2-amine]
IC50 [1]: 1 to 10 µM | IC50 [2]: ≥ 10 µM | IC50 [3]: 1 to 10 µM | IC50 [4]: 1 to 10 µM

Cn1cc(Nc2nccc(-c3ccn(C4(CC#N)CN(S(=O)(=O)CCCF)C4)c3)n2)cn1 [TDM-180854, 2-(1-((3-fluoropropyl)sulfonyl)-3-(3-(2-((1-methyl-1H-pyrazol-4-yl)amino)pyrimidin-4-yl)-1H-pyrrol-1-yl)azetidin-3-yl)acetonitrile]
IC50 [1]: 0.1 to 1 µM | IC50 [2]: 1 to 10 µM | IC50 [3]: 0.1 to 1 µM | IC50 [4]: < 0.1 µM

Cn1cc(Nc2nccc(-c3ccn(C4(CC#N)CN(S(=O)(=O)C5CCOCC5)C4)c3)n2)cn1 [TDM-180855, 2-(3-(3-(2-((1-methyl-1H-pyrazol-4-yl)amino)pyrimidin-4-yl)-1H-pyrrol-1-yl)-1-((tetrahydro-2H-pyran-4-yl)sulfonyl)azetidin-3-yl)acetonitrile]
IC50 [1]: 0.1 to 1 µM | IC50 [2]: 1 to 10 µM | IC50 [3]: 0.1 to 1 µM | IC50 [4]: 0.1 to 1 µM
